Assay results: ChEMBL document CHEMBL5512658, “Development of benzimidazole-based compounds as novel capsid assembly modulators for the treatment of HBV infection” (Eur J Med Chem, 2024); call rule not given here

Columns and labels:
HepG2 = test: Cytotoxicity against human HepG2 cells measured after 3 days by resazurin staining based analysis; format: functional; conditions: HepG2, 72 h, time 3 day
Core antigen = Core antigen (Hepatitis B virus, UniProt Q03732); test: Inhibition of Hepatitis B virus core protein expressed in HBC cells derived from HEK293T cells assessed as reduction in HBcAg level incubated for 6 hrs by Nano-glo luciferase assay; format: cell-based
[1] = tested on: Hepatitis B virus core protein; test: Selectivity index, ratio of CC50 for human HepG2 cells to IC50 for Hepatitis B virus core protein expressed in HEK293T cells; format: toxicity, cell-based; conditions: read-out: Ratio CC50/IC50

Chain of Core antigen (Q03732 whole entry): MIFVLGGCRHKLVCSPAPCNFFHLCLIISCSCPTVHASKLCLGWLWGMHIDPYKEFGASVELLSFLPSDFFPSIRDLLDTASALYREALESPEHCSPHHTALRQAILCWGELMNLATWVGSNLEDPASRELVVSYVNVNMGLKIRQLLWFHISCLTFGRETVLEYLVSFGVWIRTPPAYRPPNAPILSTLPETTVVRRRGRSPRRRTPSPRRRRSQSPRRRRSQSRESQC

IC50 (Core antigen; hbc) | Compound | CC50 (HepG2) [µM] | IC50 (Core antigen; read-out: IC50) [µM] | selectivity ratio [1]
– | COc1ccc(Cc2nc3ccccc3n2C[C@@H](O)COc2ccccc2)cc1 | 9.72 | 2.41 | 4.03
– | COc1ccc(Cc2nc3ccccc3n2C(C)C)cc1 | 37.1 | 41.5 | 0.96
– | COc1ccc(Cc2nc3ccccc3n2-c2ccccc2)cc1 | 14.2 | 52.9 | –
– | COc1ccc(Sc2nc3ccccc3n2C(C)=O)cc1 | > 100 | 12 | > 8.37
– | COc1ccc(Cc2nc3ccccc3n2CC(=O)COc2ccccc2)cc1 | 10.2 | 3.67 | 2.79
– | Cc1ccc(Sc2nc3ccccc3[nH]2)cc1 | 61 | 6.81 | 8.96
– | COc1ccc(Cc2nc3ccccc3n2CCCOc2cccnc2)cc1 | 13.4 | 1.21 | 11.1
– | COc1ccc(Cc2nc3ccccc3n2CCCNc2ccccc2)cc1 | 12.3 | 1.26 | 9.73
– | COc1ccc(Sc2nc3ccccc3n2C)cc1 | 25.8 | 5.68 | 4.54
– | CCOC(=O)Cn1c(Cc2ccc(OC)cc2)nc2ccccc21 | 22.1 | 9.41 | 2.35
– | COc1ccc(Cc2nc3ccccc3n2C2CCC2)cc1 | 89.6 | 27.2 | 3.29
– | COc1ccc(Cc2nc3ccccc3n2C[C@H](O)COc2ccccc2)cc1 | 15.2 | 2.46 | 6.18
– | COc1ccc(Cc2nc3ccccc3n2CCCCc2ccccc2)cc1 | 44.6 | 27.7 | 1.61
– | OCCn1c(Sc2cccc(F)c2)nc2ccccc21 | > 100 | 49.3 | > 2.03
– | COc1ccc(Cc2nc3ccccc3n2CCCOc2ccccc2)cc1 | 12.7 | 1.25 | 10.2
– | CCc1ccc(Sc2nc3ccccc3[nH]2)cc1 | 17.2 | 3.93 | 4.37

IC50 (Core antigen; hbc) | Compound | CC50 (HepG2) [µM] | IC50 (Core antigen; read-out: IC50) [µM] | selectivity ratio [1]
– | COc1ccc(C2(c3nc4ccccc4[nH]3)CC2)cc1 | > 100 | 21.8 | > 4.58
– | COCC(O)Cn1c(Cc2ccc(OC)cc2)nc2ccccc21 (stereo not drawn) | > 100 | 3.32 | > 30.1
– | COc1ccc(S(=O)(=O)c2nc3ccccc3[nH]2)cc1 | 65.2 | 26.9 | 2.42
– | COc1ccc([S+]([O-])c2nc3ccccc3[nH]2)cc1 (stereo not drawn) | 34 | 36.5 | 0.93
– | Clc1cccc(Sc2nc3ccccc3[nH]2)c1 | > 100 | 26.5 | > 3.77
Not Active | Fc1cccc(Sc2nc3ccccc3[nH]2)c1 | > 100 | – | –
– | Brc1ccc(Sc2nc3ccccc3[nH]2)cc1 | 13.9 | 1.8 | 7.73
– | OCCn1c(Sc2ccc(Cl)c(Cl)c2)nc2ccccc21 | > 100 | 7 | > 14.3
– | COc1ccc(Cc2nc3ccccc3o2)cc1 | > 100 | 36.3 | > 2.76
– | CCCn1c(Cc2ccc(OC)cc2)nc2ccccc21 | > 100 | 11.4 | > 8.79
– | Fc1ccc(Sc2nc3ccccc3[nH]2)cc1 | 13.3 | 12 | 1.11
– | COCC(Cn1c(Cc2ccc(OC)cc2)nc2ccccc21)OC (stereo not drawn) | > 100 | 19.8 | > 5.06
– | COc1ccc(Nc2nc3ccccc3[nH]2)cc1 | 65.6 | 6.13 | 10.7
– | Clc1ccc(Sc2nc3ccccc3[nH]2)cc1 | 13.7 | 2.94 | 4.65
– | CCc1ccc(Sc2nc3ccccc3n2CCO)cc1 | 82.8 | 4.5 | 18.4
Not Active | COc1ccc(Oc2nc3ccccc3[nH]2)cc1 | > 100 | – | –
